# Results published in patent US10322131B2, “Hydroxyacid derivatives, a process for their preparation and pharmaceutical compositions containing them” (LES LABORATOIRES SERVIER, priority 2015, dated 2019).
# pIC50: −log10 of the molar value. Where two headings read alike, the source gives them in different places.
# How the values were obtained:
# H929 cells = experiment: In vitro cytotoxicity (MTT) on H929 multiple myeloma tumour line; type: cell-based; details: Microculture Tetrazolium Assay
# Protocol: The cytotoxicity studies were carried out on the H929 multiple myeloma tumour line.
# The cells are distributed onto microplates and exposed to the test compounds for 48 hours.
# The cell viability is then quantified by a colorimetric assay, the Microculture Tetrazolium Assay (Cancer Res., 1987, 47, 939-942).
# Mcl-1 protein = Mcl-1 protein (Homo sapiens, UniProt Q07820); experiment: Inhibition of Mcl-1 by the fluorescence polarisation technique; type: binding; details: for IC50: fluorescence polarisation test, Fluorescein labelled ligand 1 nM, Mcl-1 protein 5 nM, ~2 hours at r.t., read-out: IC50 (M) Mcl-1 FP
# In short: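 Competitive FP displacement of fluorescein-labelled peptide ligand (1 nM final) from Mcl-1 (5 nM final) in HEPES 10 mM, 150 mM NaCl, 0.05% Tween 20, pH 7.4, 5% DMSO final. Read after ~2 h at r.t.; IC50 from 11-point 4-parameter logistic fit of % mP reduction.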
# [1] = Homo sapiens, NCI-H929, exposed 48 hours
# Sequence of Mcl-1 protein (Q07820 whole entry): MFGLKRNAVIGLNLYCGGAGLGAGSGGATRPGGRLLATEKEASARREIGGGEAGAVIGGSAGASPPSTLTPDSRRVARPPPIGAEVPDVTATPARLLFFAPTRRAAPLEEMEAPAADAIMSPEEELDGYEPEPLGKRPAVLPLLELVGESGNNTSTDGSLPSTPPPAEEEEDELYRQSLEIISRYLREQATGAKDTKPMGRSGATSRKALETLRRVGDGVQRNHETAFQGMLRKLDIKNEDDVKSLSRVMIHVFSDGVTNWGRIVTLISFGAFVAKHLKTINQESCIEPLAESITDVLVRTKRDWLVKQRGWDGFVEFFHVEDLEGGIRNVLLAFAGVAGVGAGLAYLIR
IC50 (Mcl-1 protein),SMILES,IC50 (H929 cells; [1]),IC50 (H929 cells; exposed 48 hours),pIC50 (Mcl-1 protein)
4.05e-09 M,"Cc1c(-c2c(-c3ccc(F)cc3)sc3ncnc(OC(Cc4ccccc4OCc4ccnc(-c5cccc(OCC(O)CO)c5)n4)C(=O)O)c23)ccc(OCCN2CCN(C)CC2)c1Cl [Example 47, (2R)-2-{[(5Sa)-5-{3-chloro-2-methyl-4-[2-(4-methylpiperazin-1-yl)ethoxy]phenyl}-6-(4-fluorophenyl)thieno[2,3-d]pyrimidin-4-yl]oxy}-3-[2-({2-[3-(2,3-dihydroxypropoxy)phenyl]pyrimidin-4-yl}methoxy)phenyl]propanoic acid]",18.2 nM,,
3.75e-09 M,"COCCOCCOCCOc1ccccc1-c1nccc(COc2ccccc2CC(Oc2ncnc3sc(-c4ccc(F)cc4)c(-c4ccc(OCCN5CCN(C)CC5)c(Cl)c4C)c23)C(=O)O)n1 [Example 7, (2R)-2-{[(5Sa)-5-{3-chloro-2-methyl-4-[2-(4-methylpiperazin-1-yl)ethoxy]phenyl}-6-(4-flurophenyl)thieno[2,3-d]pyrimidin-4-yl]oxy}-3-(2-{[2-(2-{2-[2-(2-methoxyethoxy)ethoxy]ethoxy}phenyl)pyrimidin-4-yl]methoxy}phenyl)propanoic acid]",,4.45 nM,
,"Cc1c(-c2c(-c3ccc(F)cc3)sc3ncnc(OC(Cc4ccccc4OCc4ccnc(-c5ccc(OP(=O)(O)O)cc5)n4)C(=O)O)c23)ccc(OCCN2CCN(C)CC2)c1Cl [Example 29, 4-[4-({2-[(2R)-2-carboxy-2-{[(5Sa)-5-{3-chloro-2-methyl-4-[2-(4-methylpiperazin-1-yl)ethoxy]phenyl}-6-(4-fluorophenyl)thieno[2,3-d]pyrimidin-4-yl]oxy}ethyl]phenoxy}methyl)pyrimidin-2-yl]phenyl phosphate]",22.7 nM,,8.34
3.45e-09 M,"Cc1c(-c2c(-c3ccc(F)cc3)sc3ncnc(OC(Cc4ccccc4OCc4ccnc(-c5ccccc5OCCO)n4)C(=O)O)c23)ccc(OCCN2CCN(C)CC2)c1Cl [Example 26, (2R)-2-{[(5Sa)-5-{3-chloro-2-methyl-4-[2-(4methylpiperazin-1-yl)ethoxy]phenyl}-6-(4-fluorophenyl)thieno[2,3-d]pyrimidin-4-yl]oxy}-3-[2-({2-[2-(2-hydroxyethoxy)phenyl]pyrimidin-4-yl}methoxy)phenyl]propanoic acid]",1.72 nM,,
7.2e-09 M,"COC1OC(COc2cccc(-c3nccc(COc4ccccc4CC(Oc4ncnc5sc(-c6ccc(F)cc6)c(-c6ccc(OCCN7CCN(C)CC7)c(Cl)c6C)c45)C(=O)O)n3)c2)C(O)C(O)C1O [Example 16, methyl 6-O-{3-[4-({2-[(2R)-2-carboxy-2-{[(5Sa)-5-{3-chloro-2-methyl-4-[2-(4-methylpiperazin-1-yl)ethoxy]phenyl}-6-(4-flurophenyl)thieno[2,3-d]pyrimidin-4-yl]oxy}ethyl]phenoxy}methyl)pyrimidin-2-yl]phenyl}-α-D-mannopyranoside]",,37.1 nM,
4.45e-09 M,"Cc1c(-c2c(-c3ccc(F)cc3)sc3ncnc(OC(Cc4ccccc4OCc4ccnc(-c5cccc(COC(=O)NCCN6CCOCC6)c5)n4)C(=O)O)c23)ccc(OCCN2CCN(C)CC2)c1Cl [Example 42, (2R)-2-{[(5Sa)-5-{3-chloro-2-methyl-4-[2-(4-methylpiperazin-1-yl)ethoxy]phenyl}-6-(4-fluorophenyl)thieno[2,3-d]pyrimidin-4-yl]oxy}-3-{2-[(2-{3-[({[2-(morpholin-4-yl)ethyl]carbamoyl}oxy)methyl]phenyl}pyrimidin-4-yl)methoxy]phenyl}propanoic acid]",44.5 nM,,
